Laboratory results: US20110053859A1, “METHODS TO REDUCE THE EFFECTS OF SLEEP DEPRIVATION” (The U. S. Government Respresented by the Department of …, priority 2007, published 2011)
Entries after “also recorded” stand apart in the source; their conditions may differ.

Experiments:
drowsy monkeys = assay: DMS task in drowsy monkeys tested at the end of their normal day (4 PM); assay type: in vivo; conditions: for DMS performance at normal testing time: normal testing conditions (alert), nasal; for DMS performance impairment (high load and extended delay trials) in drowsy condition: tested at 4 PM, nasal spray 1.0 μg
Protocol: Monkeys were tested at the end of their normal day 12 hr day at 4 PM, approximately 6-8 hours later than their normal testing period, in what can be considered a “drowsy” condition just prior to the onset of their dark cycle at 6 PM (Price 2003, Thomas 2000). At this time animals were impaired in performance relative to their normal testing times (high cognitive load: F(1.72)=8.49. p<0.001; extended delays-very high cognitive load: F(1.72)=5.84, p<0.01) during the day. […] F refers to an analysis of variance and the numbers in parentheses are the degrees of freedom, essentially the number of subjects and conditions (−1). The F value is the an indication of the effect size as measured by the analysis of variance, which is translated into a probability (p) value. This is a standard test for significance. […] Performance was decreased in animals administered nasal sprays of saline at this time of testing. Nasal orexin-A administered at 4 PM improved performance back to normal levels.

sleep deprived monkeys = assay: PET (FDG) local cerebral glucose metabolism (CMRglc) during DMS task in sleep deprived monkeys; assay type: in vivo, rhesus monkeys (Macaca mulatta)
Excerpt: Measurement of Local Rates of Cerebral Glucose Metabolism: Measurement of rates of cerebral glucose metabolism (CMRglc) were made in 8 monkeys in four different conditions: normal alert DMS task vehicle; DMS task-Sleep Deprivation vehicle; DMS task-Sleep Deprivation+orexin A (IV or nasal). All animals (n=8) were acclimated to the PET scan sessions to the extent that performance was not influenced by the injection or blood collection procedures. On the day of the scan the monkeys were placed in primate chairs and received a 30 sec injection of 3-5 mCi of [^18]-2-deoxy-2-fluoro-D-glucose (FDG). The DMS task was initiated 5-10 min later and was performed for a total of 40 minutes (80-100) trials while the FDG was incorporated and taken up by cells during performance in the DMS task. After 40 min animals were then anesthetized with ketamine (15 mg/kg, iv) and transported to the PET scanner. Following scan acquisition, monkeys were transported back to their home cages and continuously monitored until fully recovered. Effects of anesthesia and other factors associated with the PET scanning procedures were previously assessed and shown to not influence measures of isotope uptake.
To calculate glucose uptake tracer concentrations were measured in blood samples using an automated gamma well counter from three blood samples collected from the femoral vein at 10 minutes prior to tracer injection and 8 and 42 minutes post-injection. A population-averaged FDG blood curve (calculated for monkey) was scaled to the measured blood curve for the time period from injection to the end of the PET scan (Sokoloff 1977). Data were transformed to CMRglc based on the operational equation (Phelps 1979, Kennedy 1978). Rate constants (k1, k2, and k3) and lumped constant as determined in monkey by Kennedy et. al. 1978, along with a k4 value used in human studies (Phelps 1979). PET scans were performed with a General Electric (GE) Advance NXi PET scanner with a resolution of 4 mm and consisted of a five minute transmission scan acquired in 2D mode, followed by a ten minute emission scan acquired in 3D mode. The image reconstruction of the 3D data used the 3D-reprojection method with full quantitative corrections and smoothed using a 4 mm Gaussian filter transaxially and then segmented. Data were corrected for attenuation and reconstructed into 128 by 128 matrices using a Hanning filter with a 4mm cutoff transaxially and a ramp filter with an 8.5 mm cutoff axially.
PET data were analyzed with Statistical Parametric Mapping (SPM99) software (http://www.fil.ion.ucl.ac.uk/spm/) implemented in MATLAB (MathWorks, Natick, Mass.). Reconstructed images for each scan from each of the 8 monkeys were co-registered to corresponding structural MR images obtained on a 1.5-T MR scanner (GE Medical Systems, Milwaukee, Wis.) using automated image registration (Black 2001) and then transformed spatially into a standard space with an FDG template for rhesus monkeys constructed in our laboratory based on procedures of Black and colleagues (Paxinos 2003). Resultant images were smoothed using a 2 mm isotropic Gaussian kernel with a voxel size of 1×1×1 mm. Scans were normalized for differences in global activity by proportional scaling. Effects at each voxel were estimated according to the general linear model using the multi-subject conditions and covariates option in SPM. Statistical maps were created for comparisons of the […] different experimental conditions: Normal Alert Vehicle vs. Normal Alert orexin-A (IV or nasal); Sleep Deprivation vs. Normal Alert Vehicle; Sleep Deprivation vs. Sleep Deprivation+orexin-A (IV or nasal) and Sleep Deprivation+orexin-A IV vs. Sleep Deprivation+orexin-A nasal. Exploratory analyses used a minimum voxel height (magnitude) threshold of p<0.01 and a minimum cluster size of 50 voxels. […]

[1] = test system: sleep deprived (30-36 hrs) rhesus monkeys; assay: Multi-image DMS task after 30-36 hrs of sleep deprivation; assay type: in vivo, rhesus monkeys (Macaca mulatta)
Excerpt: (§1) Subjects: All procedures were reviewed and approved by the Institutional Animal Care and Use Committee of Wake Forest University, and performed in accordance with established practices as described in the National Institutes of Health Guide for Care and Use of Laboratory Animals. Eight adult male rhesus monkeys (Macaca mulatta) weighing (8.0-11.0 kg) were utilized in this study. They were individually housed in stainless steel cages in temperature and humidity controlled colony rooms with lighting maintained on a 0600:1800 on:off schedule and fed a diet of monkey chow supplemented by fresh fruit to maintain daily monitored body weight. Fluid intake was restricted in time and amount such that a prescribed volume of an animal's normal daily fluid intake (80 ml/kg) was received either during the behavioral testing session, or within 2 hours of being returned to the home cage.
(§2) Behavioral Testing: Each monkey was exposed to 6 different testing conditions (Normal Vehicle, Alert orexin-A (IV and nasal), Sleep Deprivation, Sleep Deprivation+orexin-A (IV or nasal) which required 11-14 test sessions for each of the 8 monkeys. Animals were placed in a primate chair 1.5 meters in front of an LCD-front-projection screen for daily testing on a multi-image visual delayed match to sample (DMS) task (Porrino 2005) and performed 150-300 trials per session. Animals were trained to move a cursor tracked by a fluorescent marker attached to the back of the monkey's hand into the images by positioning the hand within a two dimensional coordinate system on the chair counter. Stimuli consisted of clip art images projected as 25 cm squares within a 3×3 position matrix onto a 1.0 meter×1.0 meter display. Responses to appropriate stimuli were rewarded with diluted fruit juice delivered via a sipper tube placed in front of the mouth. All animals were trained to a stable baseline on the DMS task in which delay varied randomly from (range 1-60 sec to 1-90 sec across animals) on a given trial, and the number of non-match stimuli (images) varied randomly from 2 to 8 in the Match phase of the task (Porrino 2005). As shown previously performance accuracy varied directly with duration of delay and number of nonmatch images (#images) presented in the Match phase (Hampson 2004, Porrino 2005). Each stimulus image (sample or nonmatch) was used on only one trial during a daily session and the sets of images were routinely changed every two weeks to maintain the trial unique feature of each session. Performance was monitored daily on the DMS task and there was no testing on weekends.
Sleep Deprivation Procedure: Sleep deprivation consisted of 30-36 hours of continuous sleep prevention supervised by laboratory personnel as previously verified using EEG recordings and sleep architecture to be a valid method of depriving animals of slow wave and REM sleep (Porrino 2005). Animals were maintained in a cage separate from their home cage in a continuously lighted room and kept awake with videos, music, occasional treats, gentle cage shaking, and interaction with technicians until their usual daily testing time. Animals were allowed 10 days between sleep deprivation episodes and were allowed to sleep after testing on each day following the 30-36 hr sleep deprivation episode. There were no residual effects of sleep deprivation on testing 24 hrs after the sleep deprivation procedure and animals returned to there normal sleep patterns on the next night following the sleep deprivation procedure.
Drug Administration: orexin-A (hypocretin-1) was mixed in saline for IV injections and in sterile water for nasal application. For IV administration orexin-A, (#003-30, Phoenix Pharmaceuticals, Mountain View, Calif.) was dissolved in physiological saline as a stock solution of 200 μg/ml which was then diluted in saline to inject 3 different doses of 2.5, 5.0 and 10.0 μg/kg via an indwelling catheter placed in either the femoral or jugular vein using a glass syringe. […]

[2] = test system: alert non sleep deprived monkeys; assay: Multi-image delayed match to sample (DMS) task in alert non-sleep-deprived monkeys; assay type: in vivo, rhesus monkeys (Macaca mulatta); conditions: for DMS performance vs saline control: IV 10.0 μg/kg, all 8 monkeys
Excerpt: as §1, §2
Drug Administration: orexin-A (hypocretin-1) was mixed in saline for IV injections and in sterile water for nasal application. […]

[3] = nasal vs IV in the same monkeys

What does the source list for “orexin-A: 33 residue neuropeptide hypocretin-1, residues 34-66 of human prepro-orexin; bought from Phoenix Pharmaceuticals (#003-30) (QPLPDCCRQKTCSCRLYELLHGAGNHAAGILTL; Orexin-A; UniProt O43612 34-66, looked up)”?
DMS performance at normal testing time (drowsy monkeys): no effect on performance; DMS performance at normal testing time (drowsy monkeys; listed as hyocretin): no effect on cognitive performance; DMS performance impairment (high load and extended delay trials) in drowsy condition (drowsy monkeys): reversed completely; DMS performance impairment (high load and extended delay trials) in drowsy condition (drowsy monkeys; listed as hyocretin): reverses cognitive deficits; Local CMRglc in DPFC vs sleep deprivation vehicle (sleep deprived monkeys; IV 10.0 μg/kg): significant increases; Local CMRglc in DStr vs sleep deprivation vehicle (sleep deprived monkeys; IV 10.0 μg/kg): significant increases; Local CMRglc in MTL vs sleep deprivation vehicle (sleep deprived monkeys; IV 10.0 μg/kg): significant decrease; Local CMRglc in Thal vs sleep deprivation vehicle (sleep deprived monkeys; IV 10.0 μg/kg): significant increases; Local CMRglc in DPFC vs sleep deprivation vehicle (sleep deprived monkeys; nasal spray mist 1.0 μg): significantly elevated bilaterally; Local CMRglc in MTL vs sleep deprivation vehicle (sleep deprived monkeys; nasal spray mist 1.0 μg): significant decreases; Change of CMRglc in DPFC, nasal vs IV (sleep deprived monkeys; [3]): greater increases in CMRglc bilaterally; Change of CMRglc in DStr, nasal vs IV (sleep deprived monkeys; [3]): greater increases in CMRglc bilaterally; Change of CMRglc in MTL, nasal vs IV (sleep deprived monkeys; [3]): decreased CMRglc; Change of CMRglc in Thal, nasal vs IV (sleep deprived monkeys; [3]): greater increases in CMRglc bilaterally; Monkeys that failed to show significant improvement on high load trials ([1]; IV 10.0 μg/kg): one of 8; DMS performance on high cognitive load trials vs sleep deprived sessions ([1]; IV 5.0 and 10.0 μg/kg): significantly improved relative to sleep deprived sessions; DMS performance on low cognitive load trials vs alert condition ([1]; IV 5.0 and 10.0 μg/kg): performed with the same efficiency as in the alert condition; DMS performance vs alert non-sleep deprived levels ([1]; IV 5.0 and 10.0 μg/kg): neither dose restored performance to alert non-sleep deprived levels; DMS performance vs sleep deprived saline sessions ([1]; IV 5.0 and 10.0 μg/kg): systematically increased performance; also recorded: partially reversed the detrimental effects on performance; DMS performance on low cognitive load trials, nasal vs IV ([1]; nasal 1.0 μg vs IV 10.0 μg/kg): no difference between IV and nasal orexin-A; DMS performance overall and on high cognitive load trials, nasal vs IV ([1]; nasal 1.0 μg vs IV 10.0 μg/kg): significantly more effective; Overall DMS performance vs sleep deprivation saline ([1]; nasal 1.0 μg, overall, low and high load trials): reversed the detrimental effects of 30-36 hr sleep deprivation; DMS performance on high cognitive load trials ([1]; nasal spray 1.0 μg): elevated performance above normal alert levels; DMS performance on low cognitive load trials ([1]; nasal spray 1.0 μg): returning performance to normal alert levels; DMS performance on extended delay trials ([1]; nasal spray 1.0 μg, extended delays (90-120 sec)): significantly above extended delay trials in both control sleep deprived and normal alert sessions; also recorded: significantly improved; DMS performance vs saline control [2]: slight but significant performance impairment; DMS performance vs saline control ([2]; listed as Orexin-A): significant reduction; DMS performance, dose relation ([2]; IV 2.5, 5.0 and 10.0 μg/kg): dose-related trend toward reduced performance; DMS performance in normal alert sessions ([2]; nasal spray 1.0 μg): little or no effect on DMS performance; also recorded: no significant effects
